Measured values published in paper PMC9822553 (iScience, 2023).

Tests used:
Type in all cases: cell-based
SARS-CoV-2 strain FFM3 = assay: microbe, parasite or virus in culture; conditions: Severe acute respiratory syndrome coronavirus 2, read-out: IC50 concentration
SARS-CoV-2 variant G614 [1] = system: SARS-CoV-2 variant G614
SARS-CoV-2 variant G614 [2] = system: SARS-CoV-2 variant G614; remark: listed apart in the source

Structure (SMILES)	IC50 (SARS-CoV-2 strain FFM3) [nM]	effect on caspase 3/7 activity (SARS-CoV-2 variant G614 [1])	effect on SARS-CoV-2 replication and CPE formation (SARS-CoV-2 variant G614 [2])
CCC(CC)COC(=O)[C@H](C)N[P@](=O)(OC[C@H]1O[C@@](C#N)(c2ccc3c(N)ncnn23)[C@H](O)[C@@H]1O)Oc1ccccc1 [remdesivir]	500		
C[C@H](NC(=O)C(=O)Nc1ccccc1C(C)(C)C)C(=O)N[C@@H](CC(=O)O)C(=O)COc1c(F)c(F)cc(F)c1F [emricasan]		suppressing caspase 3/7 activity	did not interfere with SARS-CoV-2 replication and CPE formation
